According to article PMC3511524, “Ant Trail Pheromone Biosynthesis Is Triggered by a Neuropeptide Hormone” (PLoS ONE, 2012):
Where two headings read alike, the source gives them in different places. Ends that are not written are not given here.

Molecular target: T1, SolinPBAN-R (Solenopsis invicta, UniProt L0APC6)
T1 sequence (L0APC6 1-605): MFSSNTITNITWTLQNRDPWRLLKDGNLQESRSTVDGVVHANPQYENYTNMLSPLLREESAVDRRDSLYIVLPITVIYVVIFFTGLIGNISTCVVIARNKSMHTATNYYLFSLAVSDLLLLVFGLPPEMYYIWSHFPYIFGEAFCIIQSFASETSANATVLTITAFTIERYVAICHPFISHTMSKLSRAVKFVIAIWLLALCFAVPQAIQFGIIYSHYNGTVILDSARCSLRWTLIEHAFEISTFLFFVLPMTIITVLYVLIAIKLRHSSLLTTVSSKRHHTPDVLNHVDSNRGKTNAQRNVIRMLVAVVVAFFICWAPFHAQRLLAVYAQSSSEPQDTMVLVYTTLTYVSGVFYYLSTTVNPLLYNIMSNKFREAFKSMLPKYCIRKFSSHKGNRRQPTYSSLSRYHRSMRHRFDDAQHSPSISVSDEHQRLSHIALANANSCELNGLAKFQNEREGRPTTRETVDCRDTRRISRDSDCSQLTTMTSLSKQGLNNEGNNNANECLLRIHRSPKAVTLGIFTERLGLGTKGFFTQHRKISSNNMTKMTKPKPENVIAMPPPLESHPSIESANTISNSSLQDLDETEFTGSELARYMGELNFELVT
Test: SolinPBAN-R/peptide binding assay (calcium-based Fluo-4AM fluorescence in Sf9 cells expressing SolinPBAN-R)
Format: cell-based
Settings: for EC50: SolinPBAN-R expressed in Sf9 cells, Fluo-4AM fluorescence relative to 1 µM ionomycin maximum, read-out: EC50 (half-maximal effective concentration), binding activity to SolinPBAN-R
Experimental: Poly(A) RNA was isolated from whole bodies and heads of S. invicta workers and mature female alates for synthesis cDNA as described previously. Synthesized cDNA was amplified with a degenerate primer set: 5′-[…]-3′ ([…]) and 5′-[…]-3′ ([…]) mostly conserved in TM2 and TM7 domains from insect PBAN-Rs [25]–[27]. PCR was performed for 35 cycles at 95°C for 30 s, 50°C for 30 s, and 72°C for 1 min. The PCR product was directly sequenced by Interdisciplinary Center for Biotechnology Research (ICBR, University of Florida), and then the sequence result was used to design further gene-specific primers to find 5′- and 3′- ends of the fire ant PBAN-R cDNA. 5′-RACE (GeneRacer kit, Invitrogen) was performed using primers 5′-[…]-3′ (from nucleotide 1106) and 5′-[…]-3′ (from nucleotide 588) by the 5′-RACE kit (Invitrogen). 3′-RACE was performed using primers 5′-[…] NTTYCA-3′ (from nucleotide 1199), 5′-[…] […]-3′ (from nucleotide 1336) and 5′-[…]-3′ (from nucleotide 1392). Then PCR products were inserted into a subcloning vector (TOPO-TA, Invitrogen) and confirmed the nucleotides by DNA sequence. Sequences of the receptor DNA and corresponding amino acids were analyzed by Genetyx software ver. 10 (Genetyx Corporation) and PredictProtein software. The ORF of PBAN-R cDNA was amplified using the sense primer of 5′- […] […]-3′ (from nucleotide 255 including the NotI site) and 5′-[…] […]-3′ (from nucleotide 2122 including the XbaI site). The PCR product was ligated into a pIBV5His vector (Invitrogen) for expression in Sf9 cells as described previously.
All peptides used in this study were synthesized or purchased from Sigma Genosys or Peninsula Laboratories. The preparation of cells, peptides, and Fluo-4AM with hymenopteran saline followed a previously described method. Cell fluorescence intensity in a 96-well cell-culture was measured using a plate reader (BMG's NovoStar) equipped with filters (excitation: 485 nm and emission: 520 nm), and one pipetter and two injectors. Fluorescence measurements from each well were taken every 10s. After 30s PBAN or FXPRL peptide (10 µL) was added by pipetter and fluorescent changes were measured for up to 3 min. Then, 1 µM ionomycin (5 µL) was added into the cells to obtain a maximum fluorescence reading. The effect of ligand-exposure was expressed relative to the maximum value obtained with ionomycin. Data were analyzed using Microsoft EXCEL as described previously and measured EC50 values of ligands were determined using GraphPad Prism 4.03 software.
The PBAN/pyrokinin family of peptides and their receptors are currently classified as PK1 or PK2. Diapause Hormone (DH) peptides and their receptors are classified as type PK1. PBAN and other PBAN family peptides, and their receptors are classified as type PK2 [12]. To verify our SolinPBAN-R assignment we determined binding affinities for a number of PK1 ( = DH type) and PK2 ( = PBAN type) neuropeptides to SolinPBAN-R (Table 1). We expressed SolinPBAN-R in Spodoptera frugiperda 9 (Sf9) insect cells, which enabled binding specificity studies by measurement of calcium-based fluorescence intensity (Fig. 3A and Table 1). […] The SolinPBAN/pyrokinin gene is expressed in all life stages in fire ant, from egg to adult; however, the disposition of the four SolinPBAN/pyrokinin peptides in each life stage, as well as the possibility of additional receptors is unknown and currently under investigation.

| Substance | EC50 | EC50 (N≥4) | EC50 value times less than HelzePBAN (18 nM vs. 56 nM, Sf9 cells expressing SolinPBAN-R) |
| --- | --- | --- | --- |
| NDVKDGAASGAHSDRLGLWFGPRL-NH2 [HelzePGN24 (DH)] | > 1000 nM |  |  |
| LSDDMPATPADQEMYRQDPEQIDSRTKYFSPRL-NH2 [HelzePBAN] |  | 56 nM |  |
| GSGEDLSYGDAYEVDEDDHPLFVPRL-NH2 [SolinPBAN] |  | 18 nM | 3 times |
| TGPSASSGLWFGPRL-NH2 [DromePK1] | > 1000 nM |  |  |
| SVPFKPRL-NH2 [DromePK2] |  | 163 nM |  |
| TSQDIASGMWFGPRL-NH2 [SolinDH] |  | 125 nM |  |
